Test results as given in publication PMC9090415, “Discovery of small molecule inhibitors of Plasmodium falciparum apicoplast DNA polymerase” (Journal of Enzyme Inhibition and Medicinal Chemistry, 2022).

Target: P. falciparum apicoplast DNA polymerase (Pf-apPOL) (Plasmodium falciparum, UniProt Q8ILY1)
Assay: Fluorescence-based high-throughput DNA polymerase assay (molecular beacon), primary screen and dose-response
Format: biochemical
Experimental: The HT assay employs a molecular beacon, a stem-loop DNA template with a Cy3 dye and the Black Hole Quencher on the 3′ and 5′ ends of the DNA, respectively. Pf-apPOL concentration is based on a calculated absorptivity of ε280 = 56750 M^−1 cm^−1. Reactions were carried out at 25 °C, using Corning 3575 […] (well-volume, 20 µL). Assays testing for compound inhibition composed of reaction buffer (pH 7.9 in 50 mM potassium acetate, 20 mM Tris-acetate and 10 mM magnesium acetate), Pf-apPOL (20 nM), DNA substrate (20 nM), dNTPs (6 µM), and compound (10 µM in DMSO). The DNA and nucleotide substrates (dNTPs) were at concentrations of 20 nM and 6 µM, respectively, in the assay. Pf-apPOL was incubated in the reaction buffer with dNTPs and the compound of interest (10 µM, in the assay) at 25 °C for 10 min. The DNA substrate was then added and the reaction was allowed to proceed for 90 min at 25 °C.
Each assay plate contained 16 negative controls (no Pf-apPOL, DMSO present) and 16 positive controls (Pf-apPOL present, no DMSO). The fluorescence of each well was determined using a BioTek Synergy Neo fluorescence plate reader using excitation and emission wavelengths of 555 and 570 nm, respectively.
In the above, Min is the average of fluorescence emission of the negative controls (substrate only), Max the average fluorescence emission from the positive controls (enzyme + substrate), and Test the emission from the assays in the presence of compounds (enzyme + compound + substrates). […] […] The IC50 of each compound was determined using Equation (2): (2) IC50= Vmax/(1+ (I/IC50)^n)
In the above, n measures cooperativity, with n > 1 indicating synergistic binding of more than a single molecule of the compound.
To identify apPOL inhibitors we utilised our previously developed high-throughput DNA polymerase assay. The HT assay is based on a molecular beacon DNA template that forms a stem-loop with a Cy3 dye and the Black Hole Quencher on the 3′ and 5′ ends of the DNA, respectively. DNA polymerase activity extends an annealed primer through the stem region, displacing the fluorophore from the quencher, thereby increasing its fluorescence (Figure 1(A)). The assay accurately recapitulates the kinetic behaviour of apPOL, as measured through more conventional low-throughput gel-based assays. The Z′ factor for the assay described here was 0.9 across all plates (data not shown).
Figure 1. High-throughput screening. (A) The fluorescent-based DNA polymerase assay used to screen the compound libraries. The DNA template strand is a hairpin loop with a primer annealed to the loop. The 3’ end of the primer is 11 bases away from the 6 bp duplex. Strand displacement activity of the DNA polymerase separates the Cy3 dye from the Black hole quencher leading to an increase in fluorescent signal. (B) The high-throughput assay workflow. The DNA polymerase is incubated with […] compound for 10 min prior to addition of the hairpin substrate. The reaction is quenched at 3 different time points and the fluorescent signal is measured and % inhibition is determined using the provided equation.

Chain of P. falciparum apicoplast DNA polymerase (Pf-apPOL) (Q8ILY1 entry or part of it): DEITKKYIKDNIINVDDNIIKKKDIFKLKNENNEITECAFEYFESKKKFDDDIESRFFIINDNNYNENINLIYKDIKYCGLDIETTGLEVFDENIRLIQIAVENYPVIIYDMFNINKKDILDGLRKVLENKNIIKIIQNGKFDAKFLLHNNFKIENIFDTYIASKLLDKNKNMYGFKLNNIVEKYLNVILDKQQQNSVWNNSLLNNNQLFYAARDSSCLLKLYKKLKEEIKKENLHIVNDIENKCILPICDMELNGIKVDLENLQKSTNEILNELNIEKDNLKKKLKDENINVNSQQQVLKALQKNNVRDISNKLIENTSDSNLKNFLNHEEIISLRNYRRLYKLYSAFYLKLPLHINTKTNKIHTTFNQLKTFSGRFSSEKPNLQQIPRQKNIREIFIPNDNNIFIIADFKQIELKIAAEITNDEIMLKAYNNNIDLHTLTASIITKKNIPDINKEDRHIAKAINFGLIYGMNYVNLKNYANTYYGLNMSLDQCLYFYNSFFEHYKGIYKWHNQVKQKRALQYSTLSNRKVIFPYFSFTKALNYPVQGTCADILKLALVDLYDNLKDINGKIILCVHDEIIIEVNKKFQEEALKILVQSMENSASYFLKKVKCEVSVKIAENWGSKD

O=C(Nc1nnc(-c2ccno2)o1)c1ccc2c(c1)OCO2 [KU0171343]
DNA Pol (186 hits, value of the hit list (primary screen); unit not given; 90 min, 10 µM): 40 | % inhibition Apo pol 10' (DRC-1; 10'; concentration 2.5): 0.3504% | % inhibition Apo pol 10' (DRC-1; 10'; concentration 5): 4.323% | % inhibition Apo pol 10' (DRC-1; 10'; concentration 10): 19.3402% | % inhibition Apo pol 10' (DRC-1; 10'; concentration 20): 32.3938% | % inhibition Apo pol 10' (DRC-1; 10'; concentration 40): 61.4938% | % inhibition Apo pol 10' (DRC-1; 10'; concentration 80): 79.918% | % inhibition Apol 90' (DRC-1; 90'; concentration 2.5): -7.247% | % inhibition Apol 90' (DRC-1; 90'; concentration 5): -7.662% | % inhibition Apol 90' (DRC-1; 90'; concentration 10): 0.8301% | % inhibition Apol 90' (DRC-1; 90'; concentration 20): 8.774% | % inhibition Apol 90' (DRC-1; 90'; concentration 40): 33.5392% | % inhibition Apol 90' (DRC-1; 90'; concentration 80): 60.7945% | % inhibition apPOL 180' (DRC-1; 180'; concentration 2.5): -15.466% | % inhibition apPOL 180' (DRC-1; 180'; concentration 5): -16.6627% | % inhibition apPOL 180' (DRC-1; 180'; concentration 10): -10.0119% | % inhibition apPOL 180' (DRC-1; 180'; concentration 20): -7.297% | % inhibition apPOL 180' (DRC-1; 180'; concentration 40): 11.9639% | % inhibition apPOL 180' (DRC-1; 180'; concentration 80): 37.6873% | % inhibition Apo pol 5' (DRC-2, 5', concentration 2.5): 4.65% | % inhibition Apo pol 5' (DRC-2, 5', concentration 5): 2.76% | % inhibition Apo pol 5' (DRC-2, 5', concentration 10): 18% | % inhibition Apo pol 5' (DRC-2, 5', concentration 20): 19% | % inhibition Apo pol 5' (DRC-2, 5', concentration 40): 33% | % inhibition Apo pol 5' (DRC-2, 5', concentration 80): 26% | % inhibition Apol 40' (DRC-2, 40', concentration 2.5): -1.21% | % inhibition Apol 40' (DRC-2, 40', concentration 5): -4.25% | % inhibition Apol 40' (DRC-2, 40', concentration 10): 14% | % inhibition Apol 40' (DRC-2, 40', concentration 20): 14% | % inhibition Apol 40' (DRC-2, 40', concentration 40): 39% | % inhibition Apol 40' (DRC-2, 40', concentration 80): 51% | % inhibition ApPOL 90' (DRC-2, 90', concentration 2.5): -3.2% | % inhibition ApPOL 90' (DRC-2, 90', concentration 5): -8% | % inhibition ApPOL 90' (DRC-2, 90', concentration 10): 11% | % inhibition ApPOL 90' (DRC-2, 90', concentration 20): 10% | % inhibition ApPOL 90' (DRC-2, 90', concentration 40): 36% | % inhibition ApPOL 90' (DRC-2, 90', concentration 80): 55% | % inhibition apPOL 180' (DRC-2, 180', concentration 2.5): -8% | % inhibition apPOL 180' (DRC-2, 180', concentration 5): -14% | % inhibition apPOL 180' (DRC-2, 180', concentration 10): 1.55% | % inhibition apPOL 180' (DRC-2, 180', concentration 20): 0.368% | % inhibition apPOL 180' (DRC-2, 180', concentration 40): 25% | % inhibition apPOL 180' (DRC-2, 180', concentration 80): 51% | % inhibition Apol 40' (DRC-2; 40'; concentration 10): 14% | % inhibition Apol 40' (DRC-2; 40'; concentration 20): 14% | % inhibition Apol 40' (DRC-2; 40'; concentration 80): 51% | % inhibition ApPOL 90' (DRC-2; 90'; concentration 5): -8% | % inhibition apPOL 180' (DRC-2; 180'; concentration 2.5): -8% | % inhibition apPOL 180' (DRC-2; 180'; concentration 80): 51% | DNA Pol (primary screen value, 'DNA Pol' only; 90 min, 10 µM): 40

CCOc1ccccc1-c1nc(-c2ccc(=O)[nH]c2)no1 [Molecule 76, CCOc1ccccc1c1onc(n1)c1ccc(=O)[nH]c1]
DNA Pol ('DNA Pol'; screening value, unit not given; 90 min, 10 µM): 20 | % inhibition Apo pol 10' (DRC-1; 10'; concentration 2.5): 0.6967% | % inhibition Apo pol 10' (DRC-1; 10'; concentration 5): 11.2745% | % inhibition Apo pol 10' (DRC-1; 10'; concentration 10): 18.9586% | % inhibition Apo pol 10' (DRC-1; 10'; concentration 20): 38.1067% | % inhibition Apo pol 10' (DRC-1; 10'; concentration 40): 53.5893% | % inhibition Apo pol 10' (DRC-1; 10'; concentration 80): 52.085% | % inhibition Apol 90' (DRC-1; 90'; concentration 2.5): 1.791% | % inhibition Apol 90' (DRC-1; 90'; concentration 5): 6.12% | % inhibition Apol 90' (DRC-1; 90'; concentration 10): 9.377% | % inhibition Apol 90' (DRC-1; 90'; concentration 20): 23.8682% | % inhibition Apol 90' (DRC-1; 90'; concentration 40): 40.5664% | % inhibition Apol 90' (DRC-1; 90'; concentration 80): 58.194% | % inhibition apPOL 180' (DRC-1; 180'; concentration 2.5): 0.4069% | % inhibition apPOL 180' (DRC-1; 180'; concentration 5): -0.1254% | % inhibition apPOL 180' (DRC-1; 180'; concentration 10): 3.145% | % inhibition apPOL 180' (DRC-1; 180'; concentration 20): 13.7998% | % inhibition apPOL 180' (DRC-1; 180'; concentration 40): 29.3034% | % inhibition apPOL 180' (DRC-1; 180'; concentration 80): 52.1842% | % inhibition Apo pol 5' (DRC-2, 5', concentration 2.5): -5.31% | % inhibition Apo pol 5' (DRC-2, 5', concentration 5): 5% | % inhibition Apo pol 5' (DRC-2, 5', concentration 10): 19% | % inhibition Apo pol 5' (DRC-2, 5', concentration 20): 30% | % inhibition Apo pol 5' (DRC-2, 5', concentration 40): 44% | % inhibition Apo pol 5' (DRC-2, 5', concentration 80): 29% | % inhibition Apol 40' (DRC-2, 40', concentration 2.5): 0.0959% | % inhibition Apol 40' (DRC-2, 40', concentration 5): 6.65% | % inhibition Apol 40' (DRC-2, 40', concentration 10): 18% | % inhibition Apol 40' (DRC-2, 40', concentration 20): 30% | % inhibition Apol 40' (DRC-2, 40', concentration 40): 50% | % inhibition Apol 40' (DRC-2, 40', concentration 80): 55% | % inhibition ApPOL 90' (DRC-2, 90', concentration 2.5): -0.625% | % inhibition ApPOL 90' (DRC-2, 90', concentration 5): 5% | % inhibition ApPOL 90' (DRC-2, 90', concentration 10): 15% | % inhibition ApPOL 90' (DRC-2, 90', concentration 20): 26% | % inhibition ApPOL 90' (DRC-2, 90', concentration 40): 48% | % inhibition ApPOL 90' (DRC-2, 90', concentration 80): 56% | % inhibition apPOL 180' (DRC-2, 180', concentration 2.5): -3% | % inhibition apPOL 180' (DRC-2, 180', concentration 5): 1.18% | % inhibition apPOL 180' (DRC-2, 180', concentration 10): 8% | % inhibition apPOL 180' (DRC-2, 180', concentration 20): 16% | % inhibition apPOL 180' (DRC-2, 180', concentration 40): 37% | % inhibition apPOL 180' (DRC-2, 180', concentration 80): 54% | % inhibition Apo pol 5' (conc 5 (unit not given); 5'; DRC-2): 5% | % inhibition ApPOL 90' (conc 5 (unit not given); 90'; DRC-2): 5% | % inhibition Apo pol 5' (conc 20 (unit not given); 5'; DRC-2): 30% | % inhibition Apol 40' (conc 20 (unit not given); 40'; DRC-2): 30% | DNA Pol (primary screen hit value, DNA Pol (186 hits); 90 min, 10 µM): 20
